These results are taken from patent US20240165112A1, “THERAPY FOR THE TREATMENT OF CANCER” (Bristol-Myers Squibb Company, priority 2022, published 2024).

Molecules are shown by their SMILES.

Test [1] relates to Eleven patient-derived tumor organoids. Kind of test: 3D clonogenic assay, summary over the organoid panel. It is filed as cell-based, human. The conditions noted are these: for median percent colony reduction relative to DMSO: 11 organoid cultures. As for the experimental part:
Five tumor cell lines (4T1.2, A549, EMT6, NCI-H460, and HT29) were treated with a range of paclitaxel or 5-FU concentrations in the presence of dimethlylsulfoxide (DMSO), 5 μM Compound 1, or 20 μM Compound 1. Cells were imaged 4 days after treatment and percent confluence was assessed by image quantification. EC50 values for cell confluence were used to assess chemotherapy potency. Eleven patient-derived tumor organoids (MAXFTN449, MAXFTN2990, PAXF1657, PAXF2131, CXF1256, CXF2129, CXF2061, LXFE2478, LXFE690, LXFA677, LXFA644) were seeded in a 3D matrix and treated with a range of paclitaxel, 5-FU, SN38, Gemcitabine, oxaliplatin, and carboplatin concentrations in the presence of DMSO, 5 μM Compound 1, or 20 μM Compound 1. After 8 to 13 days in culture, colonies were stained, imaged, and counted. A dose response curve was generated for chemotherapy alone or chemotherapy in combination with 5 or 20 μM Compound 1. Combination activity was defined as a percentage of the area under the chemotherapy dose response curve (cAUC) for Compound 1 combination groups compared to the cAUC of chemotherapy alone.
The clonogenic assay was carried out in a 96 well plate format using ultra low attachment plates. For each test, plates were prepared as follows: each test well contained a layer of semi-solid medium with tumor cells (50 μL), and a second layer of medium supernatant with or without test compound (100 μL). The cell layer consisted of […] to 12.5×10^3 tumor cells per well, which were seeded in 50 μL/well cell culture medium (IMDM, supplemented with 20% (v/v) fetal bovine serum, 50 μg/mL gentamicin, and 0.4% (w/v) agar). After 24 hours, the soft-agar layer was covered with 90 μL of the same culture medium without agar, and 10 μL of control medium or test compound after serial dilution in DMSO for the duration of the experiment (continuous exposure, 100 μL drug overlay).
After 8 to 13 days in culture, colonies were stained, imaged, and counted.

Test [2] has as its system phospho-c-Jun in lung cancer-associated fibroblasts (CAF). Kind of test: TGF-β-induced c-Jun phosphorylation (capillary western). Format: cell-based. The note with it: Homo sapiens, Fibroblast, 10 ng/mL TGF-β for 2 hours, western blot, read-out: EC50 on phospho-c-Jun levels. As for the experimental part: (§1) Normal human lung fibroblasts (NHLF, black circle) or lung cancer-associated fibroblasts (CAF, black square) were treated with 10 ng/mL TGF-β after 1 hour pre-incubation with a range of Compound 1 concentrations, and cells were lysed 2 hours later. Phospho-c-Jun levels were evaluated by western blot. Abbreviations: CAF, cancer-associated fibroblasts; NHLF, normal lung human fibroblasts; TGF-β, transforming growth factor beta.
(§2) Normal human lung fibroblasts (NHLF) and lung cancer-associated fibroblasts (CAF) were maintained in their respective vendor recommended media. For the purposes of comparing the two cell lines, NHLF and lung CAF were both adapted to DMEM+10% fetal bovine serum (FBS) and to RPMI+10% FBS prior to use in the activation assay. Cells were seeded (150,000 NHLF and lung CAF cells) in 12 well plates and allowed to adhere overnight at 37° C., 5% CO2. The next day, cells were pre-treated for […] at 37° C. with DMSO or Compound 1 at 30 μM, 7.5 μM, 1.875 μM, 0.469 μM, 0.117 μM, 0.029 μM, and 0.007 μM. […]
(§3) The levels of phospho-c-Jun in NHLF and non-small cell lung CAF in response to TGF-β in the presence of DMSO or varying concentrations of Compound 1 were summarized in FIG. 7. […] Phospho-c-Jun levels were determined by western blot analysis and were normalized to DMSO treated samples.
(A western blot detects proteins with antibodies after separation by electrophoresis.)

Test [3] relates to phospho-c-Jun in normal human lung fibroblasts (NHLF). The test is described as above. The note with it: Fibroblast, 10 ng/mL TGF-β for 2 hours, western blot, read-out: EC50 on phospho-c-Jun levels. Format: cell-based. As for the experimental part: as §1, §2, §3

As to `C[C@@H]1CC[C@@H](Nc2nc(NC(C)(C)C)ncc2C(N)=O)C[C@H]1O` [Compound 1, 2-(tert-butylamino)-4-((1R,3R,4R)-3-hydroxy-4-methylcyclohexylamino)-pyrimidine-5-carboxamide], the “organoid cultures with an average percent colony reduction greater than 20%” value in test [1] (5 μM Compound 1) was 8 out of 11; in test [1] (20 μM Compound 1), 10 out of 11. In addition, the “median percent colony reduction relative to DMSO” value in test [1] (5 μM Compound 1) turned out to be 39%; in test [1] (20 μM Compound 1) it was 34%. The EC50 (commonly the midpoint of the concentration-response curve) is 0.33 µM in test [2] and 0.35 µM in test [3].
